Laboratory results as given in US20200361895A1, “NOVEL SULFONAMIDE CARBOXAMIDE COMPOUNDS” (Inflazome Limited, priority 2017, published 2020).
Counter-ions that a name gives are not always drawn.

Key:
NLRP3 [1] = biological target: T1, NLRP3 (Homo sapiens, UniProt Q96P20); assay: Human whole blood IL1β release assay (LPS + nigericin, AlphaLisa IL-1β; HWB IC50); type: cell-based; design: Human whole blood in Li-heparin tubes was obtained from healthy donors from a volunteer donor panel; from tissue; host or cells: human whole blood from healthy donors; conditions: IL-1β release
T1 sequence (Q96P20 whole entry): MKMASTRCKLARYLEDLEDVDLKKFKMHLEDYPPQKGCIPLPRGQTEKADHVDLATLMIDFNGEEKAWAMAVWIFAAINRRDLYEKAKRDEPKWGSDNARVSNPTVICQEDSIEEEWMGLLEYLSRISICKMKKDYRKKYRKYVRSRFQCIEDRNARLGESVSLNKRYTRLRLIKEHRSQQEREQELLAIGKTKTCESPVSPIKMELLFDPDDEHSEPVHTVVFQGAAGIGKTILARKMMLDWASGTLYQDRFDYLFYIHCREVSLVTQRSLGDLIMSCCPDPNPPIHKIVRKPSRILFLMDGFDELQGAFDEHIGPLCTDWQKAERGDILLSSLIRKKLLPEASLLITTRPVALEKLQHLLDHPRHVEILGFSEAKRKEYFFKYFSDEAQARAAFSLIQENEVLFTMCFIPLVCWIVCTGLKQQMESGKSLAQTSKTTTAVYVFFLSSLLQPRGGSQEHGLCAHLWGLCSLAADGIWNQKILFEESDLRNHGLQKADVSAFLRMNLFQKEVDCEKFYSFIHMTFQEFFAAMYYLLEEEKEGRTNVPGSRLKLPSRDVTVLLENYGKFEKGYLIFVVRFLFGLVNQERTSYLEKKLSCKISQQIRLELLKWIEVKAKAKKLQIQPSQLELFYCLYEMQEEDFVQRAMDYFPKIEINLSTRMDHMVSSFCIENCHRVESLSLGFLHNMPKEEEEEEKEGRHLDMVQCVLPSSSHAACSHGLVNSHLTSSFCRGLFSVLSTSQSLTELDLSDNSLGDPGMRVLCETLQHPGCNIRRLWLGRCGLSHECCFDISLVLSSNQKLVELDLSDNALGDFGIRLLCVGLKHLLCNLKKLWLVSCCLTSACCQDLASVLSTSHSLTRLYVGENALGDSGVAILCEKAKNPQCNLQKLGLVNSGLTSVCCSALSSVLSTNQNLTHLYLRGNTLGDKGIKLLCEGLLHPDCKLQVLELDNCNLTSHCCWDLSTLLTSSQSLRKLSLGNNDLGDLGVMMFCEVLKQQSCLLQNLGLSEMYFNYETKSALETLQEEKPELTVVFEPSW
Method in brief: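 Donor Li-heparin whole blood primed with 1 μg/ml LPS, given compound (8-point half-log series, 10 μM top; DMSO 0.1% final) for 3 h at 37 °C, then nigericin 10 μM final for 1 h. Supernatant IL-1β measured by AlphaLisa; IC50 from 4-parameter variable-slope fit.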

NLRP3 [2] = biological target: T1, NLRP3; assay: THP-1 cells pyroptosis assay (LPS + nigericin, resazurin readout; THP IC50); type: cell-based; design: Seed THP-1 cells (25,000 cells/well) containing 1.0 μg/ml LPS in 40 μl of RPMI medium; host or cells: THP-1 cells
Method in brief: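 Human THP-1 cells, 25,000/well in serum-free RPMI with 1 μg/ml LPS, treated 3 hrs at 37° C with compound (8-point half-log, 10 μM top, 0.1% DMSO), then 5 μM nigericin 1 hr. Viability by 100 μM resazurin fluorescence after 1-2 hrs; IC50 by 4-parameter fit.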

Row | IC50 (NLRP3 [1]) | IC50 (NLRP3 [2]) | Compound
1 | ≤ 500 nM | ≤ 500 nM | Cc1cc(-c2ccc3c(c2NC(=O)NS(=O)(=O)c2ccn(C4CCC4)n2)CCC3)ccn1 [Example 269, 1-Cyclobutyl-N-((5-(2-methylpyridin-4-yl)-2,3-dihydro-1H-inden-4-yl)carbamoyl)-1H-pyrazole-3-sulfonamide, sodium salt]
2 | ≤ 500 nM | ≤ 500 nM | Cc1cc(-c2ccc3c(c2NC(=O)NS(=O)(=O)c2ccn(C4CC4)n2)CCC3)ccn1 [Example 270, 1-Cyclopropyl-N-((5-(2-methylpyridin-4-yl)-2,3-dihydro-1H-inden-4-yl)carbamoyl)-1H-pyrazole-3-sulfonamide, sodium salt]
3 | ≤ 500 nM | ≤ 500 nM | N#Cc1cc(-c2ccc3c(c2NC(=O)NS(=O)(=O)c2ccn(CC4CC4)n2)CCC3)ccn1 [Example 271, N-((5-(2-Cyanopyridin-4-yl)-2,3-dihydro-1H-inden-4-yl)carbamoyl)-1-(cyclopropylmethyl)-1H-pyrazole-3-sulfonamide]
4 | ≤ 500 nM | ≤ 500 nM | CC(C)(CN1CCC1)n1ccc(S(=O)(=O)NC(=O)Nc2c(-c3ccnc(OC4CC4)c3)ccc3c2CCC3)n1 [Example 274, 1-(1-(Azetidin-1-yl)-2-methylpropan-2-yl)-N-((5-(2-cyclopropoxypyridin-4-yl)-2,3-dihydro-1H-inden-4-yl)carbamoyl)-1H-pyrazole-3-sulfonamide, sodium salt]
5 | ≤ 500 nM | ≤ 500 nM | O=C(Nc1c(-c2ccnc(OC(F)F)c2)ccc2c1CCO2)NS(=O)(=O)c1ccn(C2CCC2)n1 [Example 275, 1-Cyclobutyl-N-((5-(2-(difluoromethoxy)pyridin-4-yl)-2,3-dihydrobenzofuran-4-yl)carbamoyl)-1H-pyrazole-3-sulfonamide, sodium salt]
6 | ≤ 1000 nM | ≤ 500 nM | O=C(Nc1c(-c2ccnc(OC3CC3)c2)ccc2c1CCO2)NS(=O)(=O)c1ccn(C2CC2)n1 [Example 276, N-((5-(2-Cyclopropoxypyridin-4-yl)-2,3-dihydrobenzofuran-4-yl)carbamoyl)-1-cyclopropyl-1H-pyrazole-3-sulfonamide, sodium salt]
7 | ≤ 500 nM | ≤ 500 nM | O=C(Nc1c(-c2ccnc(OC(F)F)c2)ccc2c1CCO2)NS(=O)(=O)c1ccn(C2CC2)n1 [Example 277, 1-Cyclopropyl-N-((5-(2-(difluoromethoxy)pyridin-4-yl)-2,3-dihydrobenzofuran-4-yl)carbamoyl)-1H-pyrazole-3-sulfonamide, sodium salt]
8 | ≤ 500 nM | ≤ 500 nM | [2H]C([2H])([2H])Oc1cc(-c2ccc3c(c2NC(=O)NS(=O)(=O)c2ccn(C4CC4)n2)CCO3)ccn1 [Example 278, 1-Cyclopropyl-N-((5-(2-(methoxy-d3)pyridin-4-yl)-2,3-dihydrobenzofuran-4-yl)carbamoyl)-1H-pyrazole-3-sulfonamide, sodium salt]
9 | ≤ 500 nM | ≤ 500 nM | [2H]C([2H])([2H])Oc1cc(-c2ccc3c(c2NC(=O)NS(=O)(=O)c2ccn(C4CC4)n2)CCC3)ccn1 [Example 279, 1-Cyclopropyl-N-((5-(2-(methoxy-d3)pyridin-4-yl)-2,3-dihydro-1H-inden-4-yl)carbamoyl)-1H-pyrazole-3-sulfonamide, sodium salt]
10 | ≤ 500 nM | ≤ 500 nM | [2H]C([2H])([2H])Oc1cc(-c2ccc3c(c2NC(=O)NS(=O)(=O)c2ccn(C4CCC4)n2)CCO3)ccn1 [Example 280, 1-Cyclobutyl-N-((5-(2-(methoxy-d3)pyridin-4-yl)-2,3-dihydrobenzofuran-4-yl)carbamoyl)-1H-pyrazole-3-sulfonamide, sodium salt]
11 | ≤ 500 nM | ≤ 500 nM | COc1cc(-c2ccc3c(c2NC(=O)NS(=O)(=O)c2ccn(C4CCC4)n2)CCO3)c(F)cn1 [Example 281, 1-Cyclobutyl-N-((5-(5-fluoro-2-methoxypyridin-4-yl)-2,3-dihydrobenzofuran-4-yl)carbamoyl)-1H-pyrazole-3-sulfonamide, sodium salt]
12 | ≤ 500 nM | ≤ 500 nM | COc1cc(-c2ccc3c(c2NC(=O)NS(=O)(=O)c2ccc(C(C)C)c(CN(C)C)c2)CCC3)ccn1 [Example 282, 3-((Dimethylamino)methyl)-4-isopropyl-N-((5-(2-methoxypyridin-4-yl)-2,3-dihydro-1H-inden-4-yl)carbamoyl)benzenesulfonamide, sodium salt]
13 | ≤ 1000 nM | ≤ 500 nM | COc1cc(-c2ccc3c(c2NC(=O)NS(=O)(=O)OC2CCN(C)C2)CCC3)ccn1 (stereo not shown) [Example 284, 1-Methylpyrrolidin-3-yl (5-(2-methoxypyridin-4-yl)-2,3-dihydro-1H-inden-4-yl)carbamoylsulfamate]
14 | ≤ 5000 nM | ≤ 500 nM | CC(C)n1ccc(S(=O)(=O)NC(=O)Nc2c(-c3ccnc(N)c3)ccc3c2CCC3)n1 [Example 285, N-((5-(2-Aminopyridin-4-yl)-2,3-dihydro-1H-inden-4-yl)carbamoyl)-1-isopropyl-1H-pyrazole-3-sulfonamide]
15 | ≤ 10000 nM | ≤ 500 nM | CC(C)n1ccc(S(=O)(=O)NC(=O)Nc2c(-c3ccnc(Oc4ccccc4)c3)ccc3c2CCC3)n1 [Example 286, 1-Isopropyl-N-((5-(2-phenoxypyridin-4-yl)-2,3-dihydro-1H-inden-4-yl)carbamoyl)-1H-pyrazole-3-sulfonamide, sodium salt]
16 | ≤ 500 nM | ≤ 500 nM | CC(C)n1ccc(S(=O)(=O)NC(=O)Nc2c(-c3ccnc(OC4CCN(C)CC4)c3)ccc3c2CCC3)n1 [Example 287, 1-Isopropyl-N-((5-(2-((1-methylpiperidin-4-yl)oxy)pyridin-4-yl)-2,3-dihydro-1H-inden-4-yl)carbamoyl)-1H-pyrazole-3-sulfonamide, sodium salt]
17 | ≤ 5000 nM | ≤ 500 nM | CC(C)n1ccc(S(=O)(=O)NC(=O)Nc2c(-c3ccnc(OC4CCCOC4)c3)ccc3c2CCC3)n1 (stereo not shown) [Example 288, 1-Isopropyl-N-((5-(2-((tetrahydro-2H-pyran-3-yl)oxy)pyridin-4-yl)-2,3-dihydro-1H-inden-4-yl)carbamoyl)-1H-pyrazole-3-sulfonamide, sodium salt]
18 | ≤ 5000 nM | ≤ 500 nM | COCC(C)Oc1cc(-c2ccc3c(c2NC(=O)NS(=O)(=O)c2ccn(C(C)C)n2)CCC3)ccn1 (stereo not shown) [Example 289, 1-Isopropyl-N-((5-(2-((1-methoxypropan-2-yl)oxy)pyridin-4-yl)-2,3-dihydro-1H-inden-4-yl)carbamoyl)-1H-pyrazole-3-sulfonamide, sodium salt]
19 | ≤ 500 nM | ≤ 500 nM | [2H]C([2H])([2H])Oc1cc(-c2ccc3c(c2NC(=O)NS(=O)(=O)c2ccn(C4CCC4)n2)CCC3)ccn1 [Example 290, 1-Cyclobutyl-N-((5-(2-(methoxy-d3)pyridin-4-yl)-2,3-dihydro-1H-inden-4-yl)carbamoyl)-1H-pyrazole-3-sulfonamide, sodium salt]
20 | ≤ 1000 nM | ≤ 500 nM | CC(C)n1ccc(S(=O)(=O)NC(=O)Nc2c(-c3ccnc(OC4CCOC4)c3)ccc3c2CCC3)n1 (stereo not shown) [Example 291, 1-Isopropyl-N-((5-(2-((tetrahydrofuran-3-yl)oxy)pyridin-4-yl)-2,3-dihydro-1H-inden-4-yl)carbamoyl)-1H-pyrazole-3-sulfonamide, sodium salt]
21 | ≤ 1000 nM | ≤ 500 nM | CC(C)n1ccc(S(=O)(=O)NC(=O)Nc2c(-c3ccnc(OC4CCOCC4)c3)ccc3c2CCC3)n1 [Example 292, 1-Isopropyl-N-((5-(2-((tetrahydro-2H-pyran-4-yl)oxy)pyridin-4-yl)-2,3-dihydro-1H-inden-4-yl)carbamoyl)-1H-pyrazole-3-sulfonamide, sodium salt]
22 | ≤ 5000 nM | ≤ 500 nM | COc1cc(-c2ccc3c(c2NC(=O)NS(=O)(=O)c2coc(C4CC4)n2)CCC3)ccn1 [Example 293, 2-Cyclopropyl-N-((5-(2-methoxypyridin-4-yl)-2,3-dihydro-1H-inden-4-yl)carbamoyl)oxazole-4-sulfonamide, sodium salt]
23 | ≤ 1000 nM | ≤ 500 nM | CC(C)n1ccc(S(=O)(=O)NC(=O)Nc2c(-c3ccnc(C4CC4)c3)ccc3c2CCC3)n1 [Example 295, N-((5-(2-Cyclopropylpyridin-4-yl)-2,3-dihydro-1H-inden-4-yl)carbamoyl)-1-isopropyl-1H-pyrazole-3-sulfonamide, sodium salt]
24 | ≤ 500 nM | ≤ 500 nM | COCc1cc(-c2ccc3c(c2NC(=O)NS(=O)(=O)c2ccn(C(C)C)n2)CCC3)ccn1 [Example 296, 1-Isopropyl-N-((5-(2-(methoxymethyl)pyridin-4-yl)-2,3-dihydro-1H-inden-4-yl)carbamoyl)-1H-pyrazole-3-sulfonamide, sodium salt]
25 | ≤ 1000 nM | ≤ 500 nM | CC(C)n1ccc(S(=O)(=O)NC(=O)Nc2c(-c3ccnc(CO)c3)ccc3c2CCC3)n1 [Example 298, N-((5-(2-(Hydroxymethyl)pyridin-4-yl)-2,3-dihydro-1H-inden-4-yl)carbamoyl)-1-isopropyl-1H-pyrazole-3-sulfonamide]

Row | Compound | IC50 (NLRP3 [1]) | IC50 (NLRP3 [2])
26 | CC(C)n1ccc(S(=O)(=O)NC(=O)Nc2c(-c3ccnc(OC4CCC4)c3)ccc3c2CCC3)n1 [Example 294, N-((5-(2-Cyclobutoxypyridin-4-yl)-2,3-dihydro-1H-inden-4-yl)carbamoyl)-1-isopropyl-1H-pyrazole-3-sulfonamide, sodium salt] | ≤ 5000 nM | ≤ 500 nM
